The record followed here is patent US8906844B2 (SYNTONIX PHARMACEUTICALS, dated 2014).

pIC50, pKd: −log10 of the molar value. Non-standard residues stand in square brackets, D forms with d. No end group written: not given here. βAla = NCCC(=O)O

Test [1] deals with T1, soluble human FcRn (Homo sapiens, UniProt P55899).
T1 construct: made in house; host or cells: Chinese hamster ovary (CHO) cells, glutamine synthetase expression system
In words: Equilibrium binding constants (KD) by surface plasmon resonance (Biacore). The settings on record: pH 6. The method, then: The following steps were performed to cross-link soluble human or cynomolgus FcRn to the dextran surface of a CM5 sensor chip (Biacore AB, Uppsala, Sweden) by an amine coupling reaction involving 1-ethyl-(3-dimethylaminopropyl)-carbodiimide hydrochloride (EDC) (Biacore AB, Uppsala, Sweden) and N-hydroxysuccinimide (NHS) (Biacore AB, Uppsala, Sweden) as recommended by Biacore (BIAapplications Handbook, version AB, section 4.2, Biacore AB, Uppsala, Sweden). The FcRn protein was diluted in 50 mM sodium acetate, pH 4.5 (Biacore AB, Uppsala, Sweden) to a concentration of 10 to 30 μg/ml and used to coat one flow cell on the sensor chip. Residual sites on the FcRn flow cell were blocked with 1 M ethanolamine hydrochloride pH 8.5 (Biacore AB, Uppsala, Sweden). A control flow cell was blocked with ethanolamine for reference subtraction. For analysis of the monomeric peptides, FcRn was coated to a final density of 4000-5000 response units (RU). For analysis of the peptide dimers, FcRn was coated to a density of 2000-2500 RU. […]
Ten 2-fold dilutions of the peptide were injected over the FcRn-CM5 chip at a rate of 20 μl/min for 2 min. […] Sensorgrams were generated and analyzed using BiaEval software version 3.1 (Biacore AB, Uppsala, Sweden). […]
Sensorgrams were generated and analyzed using BiaEval software version 3.1 (Biacore AB, Uppsala, Sweden). […]
(In general: SPR reads the build-up and loss of mass on a sensor chip optically.)

Test [2] addresses T2, soluble human FcRn (shFcRn) (Homo sapiens, UniProt P55899).
T2 construct: made in house; host or cells: Chinese hamster ovary (CHO) cells, glutamine synthetase expression system
It counts as binding. The following applies: IgG competition ELISA, 3 nM human IgG, buffer pH 6. (In general: In an ELISA, binding on a coated surface is turned into a signal by an enzyme label.)
Procedure: A solution of soluble human FcRn (shFcRn) in Tris buffer was dialyzed twice, each time for 3 hours in 2 liters of PBS, pH 8.0. The quantity of recovered shFcRn was determined by measuring the absorbance at 280 nm. […] Biotinylation of shFcRn was accomplished by treating the dialyzed shFcRn with a 2-fold-molar excess of Sulfo-NHS-LC-Biotin (Invitrogen, Carlsbad, Calif.) for 2 hours at 4° C. Afterwards, the shFcRn-Sulfo-NHS-LC-Biotin reaction mixture was dialyzed twice in 2 L of cold PBS, followed by another absorbance reading to determine the concentration of the remaining protein. The biotinylated shFcRn was stored at 4° C. with 0.1% sodium azide until needed.
The wells were coated with 100 μl/well of 1 μg/ml biotinylated-shFcRn in Buffer A. The plate was sealed and incubated at 37° C. for 2 hours. Afterwards, the plate was washed with 200 μl/well of Buffer B (Buffer B: 100 mM MES pH 6, 150 mM NaCl, 0.5% BSA IgG-free (Jackson ImmunoResearch, West Grove, Pa.), 0.05% Tween-20). Then, 50 μl/well of 6 nM human IgG (Calbiochem, San Diego, Calif.) in Buffer B as well as 50 μl/well of the various peptide competitors (at various concentration) were added, so that the final concentration of IgG in the well was 3 nM. […] Once color developed, 100 μl/well of TMB stop solution (KPL, Gaithersburg, Md.) was added and the absorbance was measured at 450 nm.

In general, pKd refers to the negative decadic logarithm of the Kd, by convention in mol/L. Low readings indicate a high Kd, high ones a low Kd. By pIC50 is commonly meant −log10 of the IC50, conventionally taken in molar units. Read a low pIC50 as a high IC50.

T2 sequence (P61769 21-119): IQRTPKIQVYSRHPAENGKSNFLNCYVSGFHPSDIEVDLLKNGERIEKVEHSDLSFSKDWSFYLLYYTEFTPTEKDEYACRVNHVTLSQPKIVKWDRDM
T2 sequence (P55899 24-297): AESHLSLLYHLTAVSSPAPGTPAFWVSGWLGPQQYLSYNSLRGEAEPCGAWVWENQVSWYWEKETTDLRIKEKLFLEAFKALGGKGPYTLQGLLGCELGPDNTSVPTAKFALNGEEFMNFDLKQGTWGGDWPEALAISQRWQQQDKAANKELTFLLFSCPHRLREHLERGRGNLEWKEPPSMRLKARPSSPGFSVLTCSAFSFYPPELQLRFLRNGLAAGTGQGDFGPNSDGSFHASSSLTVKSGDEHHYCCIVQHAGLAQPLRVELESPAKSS
T1 sequence (P55899 24-297): as above
T1 sequence (P61769 21-119, further chain): as the sequence (P61769 21-119) above

As for “QRFCGHF[βAla]LYPCNGP (cysteine pairing not given here) [Peptide No. 25]”, the pKd in test [1] was less than 3.60. The same substance had a pIC50 in test [2] of less than 3.90.
